In data set [1] the test system is human microvessels. The data set is described as follows: ACh-induced dilation of isolated human microvessels with or without ANG II challenge. The conditions noted are these: for protection of ACh-induced vasodilation from ANG II: overnight pre-treatment, ANG II 10 nM 30 min. As for the experimental part:
(§1) Microvessels were dissected from surgical discard tissues, predominantly consisting of adipose. Only vessels with a diameter of less than 300 micrometers were selected for further study. All microvessels were obtained from discarded surgical tissues, in accordance with an Institutional Review Board approved protocols (PRO00000114, PRO00010828, PRO00001094) at the Medical College of Wisconsin, Milwaukee, Wis.
(§2) After dissection, vessels were incubated overnight in complete endothelial cell media, supplemented with 5% fetal bovine serum (Lonza) with or without peptides as described. Following overnight incubation, peptides were washed out and vessels were cannulated and transferred to physiological salt solution. A video microscopy setup enabled monitoring of vessels in real time. Vessels were pre-constricted with endothelin-1 (ET-1) at a dose range of 0.1-1 nM. Only vessels capable of constricting at least 20% from baseline were included in the study. Flow-mediated dilation (FMD) and Ach-induced dilation were then evaluated, followed by evaluation of endothelium-independent dilation to papaverin. After establishing this baseline, vessels were pre-constricted again with ET-1 and dilator curves repeated in the presence of Angiotensin II (ANG II), as described below.
(§3) Baseline vessel parameters, including ability to dilate in response to FMD, as described above were assessed. Following assessment, vessels were treated with ANG II at a final concentration of 10 nM for 30 minutes before FMD and response to ACh was re-assessed.

Data set [2] relates to human microvessels. The data set is described as follows: Flow-mediated dilation (FMD) of isolated human microvessels with or without ANG II challenge. The conditions noted are these: for baseline vessel constriction, % of maximum diameter: after 10 minutes of ET-1 treatment; for protection of flow-mediated vasodilation from ANG II: overnight pre-treatment, ANG II 10 nM 30 min. Here is the method: as §1, §2
FMD was evaluated by adjusting the heights of two reservoirs in equal and opposite directions to generate flow by altering vessel central pressure. After each change in pressure gradient, vessel diameter was measured and assessed using video microscopy. Prior to measuring FMD, all vessels studied were pre-constricted using endothelin-1.
as §3

The test system of data set [3] is human microvessels of healthy donors. The data set is described as follows: Mechanism of FMD (L-NAME / PEG-Catalase) in microvessels from healthy (non-CAD) donors. As for the experimental part: (§4) Live human microvessels were dissected from adipose from individuals with clinically confirmed coronary artery disease (CAD). Vessels were treated with nucXTERT in the presence of either vehicle or L-NAME or PEG-Catalase. Response to pressure gradient (flow) stimulus was evaluated. Microvessels from the adipose of healthy human donors was treated with either vehicle or mitoXTERT with or without NG-nitro-L-arginine methyl ester (L-NAME) or PEG-Catalase. The ability of the vessels to dilate in response to a pressure gradient (flow) was assessed.
FIGS. 7A-7C show dose titration of PEGylated nucXTERT-E in isolated vessel studies. nucXTERT with S→E substitution was PEGylated at the C-terminus to increase bio stability and cell permeability. Effective doses from 10 μM to 1 nM were tested. PEGylated peptide could be titrated down to 1 nM with vascular protective effects. […] N=3-4.
(§5) Dependence of vessels on NO versus hydrogen peroxide signaling in dilation was assessed using the pharmacologic agents Nw-nitro-L-arginine methyl ester (L-NAME; 100 μmol/L) and polyethylene glycol-catalase (PEG-catalase; 500 U/mL), respectively, where described.

The subject of data set [4] is human microvessels from individuals with coronary artery disease (CAD). The data set is described as follows: Mechanism of FMD (L-NAME / PEG-Catalase) in microvessels from donors with coronary artery disease. The conditions noted are these: vessels pretreated with peptide. Here is the method:
as §4, §5
At baseline, these vessels respond to vasodilatory stimuli through the use of H2O2 as a signaling mechanism to enable dilation. Treatment of vessels with PEG-Catalase, a scavenger of H2O2 effectively attenuates vasodilation. […] In vessels from subjects with CAD, H2O2 represents the dominant vasodilator.

Data set [5] has as its system ANG II induced endothelial dysfunction. The data set is described as follows: In vivo ANG II infusion model of hypertension and endothelial dysfunction. Details: species or system mice. Here is the method: Mice were treated with commonly used stressors to induce hypertension and endothelial dysfunction. The fast pressor dose of ANG II (1000 ng/kg/min) was infused via osmotic mini-pump for 14 days. A subgroup of animals was co-treated with nucXTERT (30 μg/day via osmotic mini-pump) in addition to ANG II, for the same duration and using the same delivery system. Curves were compared to historic controls (vehicle). […] Smooth muscle-dependent dilation in response to vasodilator papaverin was not effected (data not shown). * P<0.05 vs. Vehicle one way ANOVA RM, N=5).
To test in vivo effects of nucXTERT mice were treated with commonly used stress to induce hypertension and endothelial dysfunction. The fast pressor dose of ANG II (1000 ng/kg/min) was infused via osmotic minipump for 14 days. A subgroup of animals was co-treated with nucXTERT (30 μg/day via osmotic mini pump) in addition to ANG II, for the same duration and using the same delivery system. Curves were compared to historic controls (vehicle). […] Smooth muscle dependent dilation to papaverin was not effected (data not shown).

Data set [6] relates to human microvessels. The data set is described as follows: Uptake of 5-FAM labeled peptide by isolated human microvessels (microscopy). The conditions noted are these: 10 uM, 8 h. As for the experimental part: (§6) FIGS. 2A-2B. (A) Dissected human microvessels are shown. The top panels are brightfield images, while the bottom three panels are images of the same vessels under laser excitation with a filter to visualize emission from 5-FAM. Vessels were treated with 5-FAM labeled peptide (nucXTERT-W) at a 10 uM concentration for 8 hours (h), or left untreated (control). (B) H1299 non-small cell lung carcinoma cells were seeded onto slides and treated with 0, 50, or 100 μM 5-FAM labeled nucXTERT-W for 8 h. DAPI=blue; 5-FAM labeled peptide=green.
Peptide synthesis was conducted by GeneMed Synthesis (San Antonio, Tex.). All peptide sequences were verified by mass spectrometry, and were only used at a purity of greater than 95%. Lyophilized peptides were stored at −20 degrees Celsius. Given the charge properties of the peptides used in these studies, phosphate buffered saline (PBS) was selected as the solvent of choice to dissolve all peptides used. […]
One of the first hurdles that required consideration when evaluating the ability of novel peptides to alter telomerase localization is their ability to be internalized by living tissues. nucXTERT was labeled with 5-carboxyfluorescein (5-FAM). Isolated human microvessels incubated with the 5-FAM labeled peptide were analyzed by microscopy. […]

Data set [7] deals with H1299 non-small cell lung carcinoma cells. The data set is described as follows: Uptake of 5-FAM labeled peptide by H1299 cells (microscopy). The format is cell-based, human. The conditions noted are these: 50 or 100 μM, 8 h. As for the experimental part:
as §6
The NCI-H1299 cell line was used for the cell culture experiments described in this manuscript. Cells were cultured in RPMI (Invitrogen) supplemented with 10% fetal bovine serum (Sigma).
One of the first hurdles that required consideration when evaluating the ability of novel peptides to alter telomerase localization is their ability to be internalized by living tissues. nucXTERT was labeled with 5-carboxyfluorescein (5-FAM). Isolated human microvessels incubated with the 5-FAM labeled peptide were analyzed by microscopy. Robust signal is present in vessels pulsed with the peptide, while vessels not treated with peptide have no signal. […] Since peptide is taken up by vessels, it was possible to study the effect of peptide treatment on vessel physiology, using human microvessels as described in the methods. […]

The mark [8] stands for this setting: 30 μg/day via osmotic mini pump, 14 days, ANG II 1000 ng/kg/min.

The text below walks through data of US10858397B2, “Peptide inhibitors of telomerase translocation and therapeutic uses thereof” (THE MEDICAL COLLEGE OF WISCONSIN, INC., priority 2015, dated 2020).

Where a SMILES comes first, the peptide text is derived from it. Primed or numbered codes have the meaning given here. The star is where a group is joined. PEG12′ = C-terminal PEG12 polyethylene glycol (PEGylation) moiety, followed by a C-terminal amide; 5FAM = O=C1OC2(c3ccc(O)cc3Oc3cc(O)ccc32)c2ccc(C(=O)*)cc21

Turning to `C/C(=C\C(=O)Nc1ccccc1C(=O)O)c1ccc2ccccc2c1` [BIBR1532, reference compound], in the data set with human microvessels [1] (overnight treatment, no ANG II), the “vasodilation in response to acetylcholine” value is “effectively eliminates vasodilation in response to acetylcholine”. Also, the “vasodilation in response to flow stimulus” value in the data set on human microvessels [2] (overnight treatment, no ANG II) was “continue to dilate in response to flow stimulus”.

Consider “RRRGGAASRSLPLPKRPRR (phospho-deficient nucXTERT-A)”, for which the “protection of ACh-induced vasodilation from ANG II” value in the data set on human microvessels [1] is “does not protect vessels from attenuation of vasodilator capacity”. In the data set with human microvessels [2], the “baseline vessel constriction, % of maximum diameter” value is listed as 53±12% and the “protection of flow-mediated vasodilation from ANG II” value is “does not protect vessels from attenuation of vasodilator capacity”.

With “MPRAPRCRAVRSLLRSHYRE (listed as Homo sapiens) [mitoXTERT, decoy peptide containing regions of the telomerase MLS]”, the “protection of ACh-induced vasodilation from ANG II” value in the data set with human microvessels [1] is recorded as “no protection of the endothelium from ANG II stress”. Also, the “mechanism of dilation in healthy vessels” value in data set [3] (treated with peptide, with or without L-NAME or PEG-Catalase) is listed as “from NO-mediated dilation to H2O2-dependent dilation”. Besides, the “protection of flow-mediated vasodilation from ANG II” value in the data set with human microvessels [2] is given as “no protection of the endothelium from ANG II stress”.

As for “RRRGGSASRSLPLPKRPRR (listed as Homo sapiens) [nucXTERT]”, in the data set with human microvessels [1], the “protection of ACh-induced vasodilation from ANG II” value is recorded as “not impacted by ANG II treatment”. Further, in data set [4], the “effect of PEG-Catalase on dilation responses in CAD vessels” value is “no longer inhibits dilation responses” and the “main mechanism of FMD in CAD vessels” value is “NO is restored as the main mechanism of FMD”. Further, the “protection of flow-mediated vasodilation from ANG II” value in the data set with human microvessels [2] is listed as “not impacted by ANG II treatment”. In data set [5] (setting [8]), the “FMD under ANG II” value is reported as “prevented onset of ANG II induced endothelial dysfunction” and the “agonist (ACh) induced endothelium-dependent dilation under ANG II” value was “prevented onset of ANG II induced endothelial dysfunction”. Further, the “smooth muscle dependent dilation to papaverin” value in data set [5] (data not shown) is given as “not effected”.

With “RRRGGEASRSLPLPKRPRR (phosphomimetic nucXTERT-E) [phosphomimetic containing a glutamic acid substitution at position 227]”, in the data set on human microvessels [1], the “protection of ACh-induced vasodilation from ANG II” value was “prevents ANG II-induced endothelial dysfunction”. Further, in the data set on human microvessels [2], the “baseline vessel constriction, % of maximum diameter” value is reported as 48±18% and the “protection of flow-mediated vasodilation from ANG II” value is given as “prevents ANG II-induced endothelial dysfunction”.

For `CC(C)C[C@H](NC(=O)[C@H](CO)NC(=O)[C@H](CCCNC(=N)N)NC(=O)[C@H](CO)NC(=O)[C@H](C)NC(=O)[C@H](CO)NC(=O)CNC(=O)CNC(=O)[C@H](CCCNC(=N)N)NC(=O)[C@H](CCCNC(=N)N)NC(=O)[C@H](CCCNC(=N)N)NC(=O)c1ccc2c(c1)C(=O)OC21c2ccc(O)cc2Oc2cc(O)ccc21)C(=O)N1CCC[C@H]1C(=O)N[C@@H](CC(C)C)C(=O)N1CCC[C@H]1C(=O)N[C@@H](CCCCN)C(=O)N[C@@H](CCCNC(=N)N)C(=O)N1CCC[C@H]1C(=O)N[C@@H](CCCNC(=N)N)C(=O)N[C@@H](CCCNC(=N)N)C(=O)O` [5-FAM labeled peptide] (5FAM-RRRGGSASRSLPLPKRPRR-OH; N-terminus and C-terminus assumed), in the data set on human microvessels [6], the “5-FAM signal in vessels pulsed with peptide (uptake by living tissue)” value is recorded as “Robust signal”. The “uptake of labeled peptide into cells” value in data set [7] was “effectively traffics into the cell”.

With “Ac-CGGRRRGGEASRSLPLPKRPRR-peg12-amide (Ac-CGGRRRGGEASRSLPLPKRPRR-{PEG12′-NH2}) [PEGylated peptide, nucXTERT with S→E substitution PEGylated at the C-terminus]”, the “mechanism of FMD in non-CAD vessels (L-NAME inhibitable)” value in data set [3] (non-CAD vessels) is “did not alter”. Besides, the “lowest dose with vascular protective effects (dose titration)” value with human microvessels [2] (doses from 10 μM to 1 nM tested) turned out to be 1 nM. Besides, the “protection of flow-mediated vasodilation from ANG II” value with human microvessels [2] is given as “protected against ANG II induced endothelial dysfunction”.
